From patent publication US4340602A, “Compositions inhibiting estrogen sulfotransferase activity” (Wayne State University, priority 1978, dated 1982)
Like-named read-outs stand apart in the source and are kept apart here.

Assays:
[1] = molecular target: T1, Bovine Adrenal Estrogen Sulfotransferase (Bos taurus, UniProt P19217); test: Inhibition of bovine adrenal estrogen sulfotransferase (estrone sulfurylation); type: biochemical
T1 construct: The enzyme was isolated from the bovine adrenals; from tissue; host or cells: bovine adrenals; purified by ammonium sulfate fractionation and chromatography on DEAE-cellulose or DEAE-Sephadex A-50
T1 sequence (P19217 1-295): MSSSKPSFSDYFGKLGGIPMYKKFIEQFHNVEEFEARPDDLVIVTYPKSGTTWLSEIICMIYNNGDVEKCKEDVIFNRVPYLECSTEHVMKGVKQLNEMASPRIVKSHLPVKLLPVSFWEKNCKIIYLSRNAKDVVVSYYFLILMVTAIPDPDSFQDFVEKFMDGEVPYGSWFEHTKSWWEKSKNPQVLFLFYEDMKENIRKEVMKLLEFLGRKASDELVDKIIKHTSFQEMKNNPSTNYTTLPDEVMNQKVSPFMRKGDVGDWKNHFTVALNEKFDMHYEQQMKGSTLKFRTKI
Experimental: Materials are evaluated for activity as estrogen sulfotransferase inhibitors by the method of Rozhin et al, Journal of Biological Chemistry, 252:7214-7220 (October 25, 1977), herein incorporated by reference.
Isolation of Estrogen Sulfotransferase (EC 2.8.2.4). The enzyme was isolated from the bovine adrenals and purified by ammonium sulfate fractionation and column chromatography on DEAE-cellulose or DEAE-SephadexA-50 [Rozhin et al (1974)].
Standard Enzyme Assay. The incubation mixtures contained the following in a total volume of 0.2 ml: 0.4 mM P-Ado-PS; 2 to 23 μM estrone (3-hydroxy-1,3,5(10)-estratriene-17-one), 5×10^5 dpm of [6,7-^3 H]estrone; 5 mM magnesium acetate; 0.19 M Tris/HCl buffer (pH 8.1 at 37°); 5 ug of the enzyme; and 25 μM dithiothreitol. After a 10-min incubation (in the presence of a constant amount of inhibitor and a variable amount of estrone), the boiled mixtures were supplemented with 5 μg of aqueous estrone sulfate. The remaining [^3 H]estrone was extracted three times with 0.3 ml of ethyl ether. The residual ether was removed and the volume adjusted to 0.5 ml with methanol. A sample (25 μl) was applied, together with 10 μg of methanolic estrone sulfate marker, to type SG chromatography media (Gelman Instrument Co., Ann Arbor, Mich.), and developed with chloroform/acetone/acetic acid (110:35:6). After drying the sheet, samples were visualized by spraying with methylene blue (25 mg in 100 ml of 0.05 N H2 SO4), punched out with a cork borer, and counted in 10 ml of dioxane counting liquid. A blank employing a boiled enzyme sample was incubated and the recorded counts were substracted from each determination. The total corrected counts, representing steroid sulfate ester, were converted to nanomoles utilizing the specific activity of [^3 H]estrone. An enzyme unit was defined as that quantity of enzyme which synthesized 1 nmol of estrone sulfate in 1 min under chosen conditions. […] When nonsubstrate steroids were used as the inhibitors, the procedure for the enzyme assay was as described earlier [Rozhin et al (1974)], utilizing 5 μg of enzyme, P-Ado-[^35 S]PS, and unlabeled estrone.
Data Processing. The initial velocity analysis was carried out keeping the concentration of P-Ado-PS at saturation level, varying the estrone concentration and keeping the concentration of the inhibitor at a fixed level. Preliminary plots of the data were made in the double reciprocal form (l/v versus l/[S]), and in the form of replots of slopes (and intercepts) versus inhibitor concentration. On the basis of these plots, the proper inhibition pattern was chosen for each experiment and the data points were fitted to the appropriate equation.
Linear competitive inhibition: [formula]
Hyperbolic competitive inhibition: [formula]
Slope-parabolic non-competitive inhibition: [formula]
All calculations were performed using Cleland's Fortran programs (Adv. Enzymol., 29:1-32). The programs gave the values of Km, Vmax, and inhibition constants.
Fractional Inhibition. From kinetic experiments, Ki was calculated as described above under "Data Processing" after making replots of slopes (and/or intercepts) versus inhibitor concentration. […] Substituting v and vi from the corresponding rate equations in the absence of (v=(Vmax [S])/(Km +[S])) and presence of a (competitive) inhibition (Equation 1), the following relationship for FI is obtained: [formula] After substituting [S], Km, and [I] (see above), the equation for the fractional (competitive) inhibition simplifies to: [formula] and the mathematical relationship between FI and Ki of competitive inhibitors is represented by the continuous curve in FIG. 2 in Rozhin et al., J. Biol. Chem., 252, 7214-7220, 1977. The dashed line represents the relationship between FI and the Ki of pure noncompetitive inhibition derived mathematically in an analogous manner and expressed as [formula] Since [I]=22.2 μM, [formula]

[2] = system: 17β-estradiol receptor (rabbit uterus 100,000×g supernatant); test: Competitive binding: effect on binding of 17β-estradiol (E2) by rabbit uterine tissue; details: 2000-fold excess; 0.7 nM tritiated 17β-estradiol; 2 h on ice
Experimental: Competitive binding experiments were carried out utilizing the 100,000×g supernatant from rabbit uterus maintained at 4° C. Unlabeled competitive estrogens were added to the incubation 10 min. before tritiated 17β-estradiol. Incubations were carried out in quadruplicate for 2 h on ice. [2,4,6,7-^3 H]-17-Estradiol was added to 0.5 ml of supernatant (0.69 mg protein) at a concentration of 0.7 nM. Radioactivity in the bound 17β-estradiol was assayed by the dextran-coated charcoal (1:10) procedure.

[3] = system: estrogen sulfotransferase; test: Blocking of estrogen sulfotransferase activity by 3-methoxy-4-nitroestrone (Example 4); type: biochemical; details: molar ratio of 10:1
[4] = pH 8.1, read-out: Fractional Inhibition (Table II)
[5] = inhibitors 2 to 4 and 9 to 12; from kinetic experiments; read-out: Ki (Table II), not among those calculated
[6] = pH 8.1; read-out: Fractional Inhibition (Table II)
[7] = inhibitors 2, 7 and 8; competitive inhibition equation; read-out: Ki (Table I), calculated from fractional inhibition (competitive inhibition)
[8] = pH 8.1; read-out: Fractional Inhibition (Table I)
[9] = pH 8.1, read-out: Fractional Inhibition (Table I)
[10] = inhibitors 3 to 6, 12 and 16; from kinetic experiments; read-out: Ki (Table I), determined experimentally
[11] = inhibitors 1 and 5 to 8; calculated from fractional inhibition; read-out: Ki (Table II), calculated from Equation 4 (competitive inhibition)

SMILES: C[C@]12CC[C@@H]3c4ccc(O)cc4CC[C@H]3[C@@H]1C[C@@H](O)[C@@H]2O [1,3,5(10)Estratriene-3,16α,17β-triol]
- Ki [1]: 8.2 µM
- inhibition at 22.2 µM [1, 4]: 66%

SMILES: C[C@]12CC[C@@H]3c4ccc(O)cc4CC[C@H]3[C@@H]1C[C@@H](O)C2 [1,3,5(10)Estratriene-3,16α-diol]
- Ki [1, 5]: 1.3 µM
- inhibition at 22.2 µM [1, 6]: 89%

SMILES: C[C@]12CC[C@@H]3c4ccc(O)cc4CC[C@H]3[C@@H]1C[C@H](O)[C@@H]2O [1,3,5(10)Estratriene-3,16β,17β-triol]
- Ki [1]: 5.5 µM
- inhibition at 22.2 µM [1, 4]: 72%

SMILES: CC(=O)Oc1ccc2c(c1)CC[C@@H]1[C@@H]2CC[C@]2(C)[C@@H](O)CC[C@@H]12 [1,3,5(10)Estratriene-3,17β-diol-3-acetate]
- Ki [1, 7]: 17 µM
- inhibition at 22.2 µM [1, 8]: 39%

SMILES: C[C@]12CC[C@@H]3c4ccc(OC(=O)c5ccccc5)cc4CC[C@H]3[C@@H]1CC[C@@H]2O [1,3,5(10)Estratriene-3,17β-diol-3-benzoate]
- Ki [1]: 90 µM
- inhibition at 22.2 µM [1, 9]: 11%

SMILES: C[C@@]12CCC[C@H]1[C@@H]1CCc3cc(O)ccc3[C@H]1CC2 [1,3,5(10)Estratriene-3-ol]
- Ki [1, 10]: 3.5 µM
- inhibition at 22.2 µM [1, 8]: 67%

SMILES: C[C@]12CC[C@@H]3c4ccccc4CC[C@H]3[C@@H]1CC[C@@H]2O [1,3,5(10)Estratriene-17β-ol]
- Ki [1, 7]: 16 µM
- inhibition at 22.2 µM [1, 8]: 41%

SMILES: C[C@@]12CCC[C@H]1[C@@H]1CCc3ccccc3[C@H]1CC2 [1,3,5(10)Estratriene]
- inhibition at 22.2 µM [1, 8]: 0%

SMILES: C[C@]12CC[C@@H]3c4cc(Br)c(O)c(Br)c4CC[C@H]3[C@@H]1CC[C@@H]2O [2,4-Dibromo-1,3,5(10)estratriene-3,17β-diol]
- Ki [1, 11]: 0.11 µM
- inhibition at 22.2 µM [1, 6]: 99%

SMILES: C[C@]12CC[C@@H]3c4cc([N+](=O)[O-])c(O)c([N+](=O)[O-])c4CC[C@H]3[C@@H]1CC[C@@H]2O [2,4-Dinitro-1,3,5(10)estratriene-3,17β-diol]
- Ki [1]: 4.3 µM
- inhibition at 22.2 µM [1, 4]: 72%

SMILES: C[C@]12CC[C@@H]3c4cc(N)c(O)cc4CC[C@H]3[C@@H]1CC[C@@H]2O [2-Amino-1,3,5(10)estratriene-3,17β-diol]
- Ki [1, 11]: 3.5 µM
- inhibition at 22.2 µM [1, 6]: 76%

SMILES: C[C@]12CC[C@@H]3c4cc([N+](=O)[O-])c(O)cc4CC[C@H]3[C@@H]1CC[C@@H]2O [2-Nitro-1,3,5(10)estratriene-3,17β-diol]
- Ki [1, 5]: 2.4 µM
- inhibition at 22.2 µM [1, 6]: 80%

SMILES: C[C@]12CC[C@@H]3c4ccc(O)cc4C(=O)C[C@H]3[C@@H]1CC[C@@H]2O [3,17β-Dihydroxy-1,3,5(10)-estratriene-6-one]
- Ki [1]: 5.5 µM
- inhibition at 22.2 µM [1, 4]: 69%

SMILES: C[C@]12CC[C@@H]3c4ccc(O)cc4CC[C@H]3[C@@H]1CCC2=O [3-Hydroxy-1,3,5(10)estratriene-17-one]
- Ki [1]: 4.9 µM
- inhibition at 22.2 µM [1, 8]: 65%

SMILES: COc1ccc2c(c1)CC[C@@H]1[C@@H]2CC[C@]2(C)[C@@H](O)CC[C@@H]12 [3-Methoxy-1,3,5(10)estratriene-17β-ol]
- Ki [1, 10]: 4.8 µM
- inhibition at 22.2 µM [1, 8]: 61%

SMILES: COc1ccc2c(c1[N+](=O)[O-])CC[C@@H]1[C@@H]2CC[C@]2(C)C(=O)CC[C@@H]12 [3-Methoxy-4-NO2-1,3,5(10)-estratriene-17-one]
- Ki [1, 11]: 4.3 µM
- inhibition at 22.2 µM [1, 6]: 72%
- blocking of binding of 17β-estradiol to its receptor [2]: not blocked
- blocked activity of estrogen sulfotransferase [3]: > 90%

SMILES: C[C@]12CC[C@H](O)CC1=CC[C@@H]1[C@@H]2CC[C@]2(C)C(=O)CC[C@@H]12 [3β-Hydroxy-5-androstene-17-one]
- Ki [1]: 170 µM
- inhibition at 22.2 µM [1, 9]: 21%

SMILES: C[C@]12CC[C@H](O)C[C@H]1CC[C@@H]1[C@@H]2CC[C@]2(C)C(=O)CC[C@@H]12 [3β-Hydroxy-5β-androstane-17-one]
- Ki [1]: 302 µM
- inhibition at 22.2 µM [1, 9]: 13%

SMILES: C[C@]12CC[C@@H]3c4ccc(O)c(N)c4CC[C@H]3[C@@H]1CC[C@@H]2O [4-Amino-1,3,5(10)estratriene-3,17β-diol]
- Ki [1, 11]: 3.5 µM
- inhibition at 22.2 µM [1, 6]: 76%

SMILES: C[C@]12CC[C@@H]3c4ccc(O)c([N+](=O)[O-])c4CC[C@H]3[C@@H]1CC[C@@H]2O [4-Nitro-1,3,5(10)estratriene-3,17β-diol]
- Ki [1, 5]: 0.15 µM
- inhibition at 22.2 µM [1, 6]: 98%

SMILES: C[C@]12CC[C@H]3[C@@H](CC=C4C[C@@H](O)CC[C@@]43C)[C@@H]1CC[C@@H]2O [5-Androstene-3β,17β-diol]
- Ki [1]: 35 µM
- inhibition at 22.2 µM [1, 9]: 39%

SMILES: C[C@@]12CCC[C@H]1[C@@H]1CC=C3C[C@@H](O)CC[C@]3(C)[C@H]1CC2 [5-Androstene-3β-ol]
- Ki ([1]; inhibitors 10, 11 and 13 to 15; Equation 5 (noncompetitive); read-out: Ki (Table I), calculated from fractional inhibition (noncompetitive inhibition)): 50 µM
- inhibition at 22.2 µM [1, 8]: 31%

SMILES: C[C@@]12CCC[C@H]1[C@@H]1CC=C3CCCC[C@]3(C)[C@H]1CC2 [5-Androstene]
- inhibition at 22.2 µM [1, 8]: 0%
- estrogen sulfotransferase inhibition, in words ([1]; summary statement): inactive

SMILES: C[C@]12CC[C@H](O)C[C@@H]1CC[C@@H]1[C@@H]2CC[C@]2(C)[C@@H](O)CC[C@@H]12 [5α-Androstane-3β,17β-diol]
- Ki [1]: 47 µM
- inhibition at 22.2 µM [1, 9]: 32%

SMILES: C[C@]12CCC(=O)C[C@@H]1CC[C@@H]1[C@@H]2CC[C@]2(C)[C@@H](O)CC[C@@H]12 [17β-Hydroxy-5α-androstane-3-one]
- Ki [1]: 38 µM
- inhibition at 22.2 µM [1, 9]: 37%

SMILES: C[C@]12CCC(=O)C[C@H]1CC[C@@H]1[C@@H]2CC[C@]2(C)[C@@H](O)CC[C@@H]12 [17β-Hydroxy-5β-androstane-3-one]
- Ki [1]: 74 µM
- inhibition at 22.2 µM [1, 9]: 23%
